Laboratory results reported in patent US20100297109A1, “METHODS FOR INHIBITING FASCIN” (Cornell University, priority 2007, published 2010).

Key:
fascin [1] = biological target: T1, fascin (Homo sapiens, UniProt Q16658); test: F-actin bundling assay, low-speed centrifugation (F-actin pelleting); format: biochemical; set-up: GST (N); made in house; host or cells: Escherichia coli BL21
Experimental: Whole cell lysates from 4T1 mouse breast tumor cells were made. After preclearing the cell lysate with immobilized neutravidin biotin binding protein (Pierce, IL, USA) to remove biotin and avidin-binding proteins, the cell lysates were loaded to a column packed with the biotin-labeled macroketone (conjugated to neutravidin beads). A control column packed with free biotin and neutravidin beads was run side-by-side. After washing the column with 10 bed volumes of lysis buffer with 300 mM NaCl, the bound proteins were eluted with 0.1 M Glycine-HCl at pH 2.8 according to the manufacturer's instruction. […] Protein Expression and Purification. Recombinant GST-fascin fusion protein was produced in BL21 Escherichia coli. A 1-liter culture was grown to an A600 reading of 1.0 and then induced by addition of 0.3 mM isopropyl 1-thio-D-galactopyranoside (IPTG) for 12 hours at 25° C. Cells were flash frozen and then lysed by sonication in Tris-buffered saline. The supernatant was then incubated with glutathione-Sepharose for 2 h at 4° C. After extensive washing, GST-fascin was eluted and concentrated with a Centricon Plus-20 (Millipore). To remove the GST tag from the fusion protein, beads were incubated with thrombin overnight at 4° C. The supernatant was collected and concentrated. […] Actin bundling activity was measured by low speed centrifugation assay and fluorescence microscopy. […]

[2] = test system: human colon tumor Lovo cells; test: Cell migration assay, Lovo cells; format: cell-based
[3] = test system: mouse embryonic fibroblast (MEF) cells; test: Wound-healing assay, serum-induced migration of MEF cells; format: cell-based; conditions: 200 μM
4T1 cells [4] = test: Boyden chamber cell migration assay, serum-induced migration of 4T1 cells; format: cell-based, mouse; conditions: FIGS. 1C and 1D
Experimental: Cells. Mouse 4T1 mammary tumor cells and human MDA-MB-231 breast tumor cells were obtained from ATCC and have been described previously (Shan et al. 2005, Yang et al. 2005). 4T1 cells were cultured in RPMI 1640 medium supplemented with 10% FBS. MDA-MB-231 cells were cultured in DMEM supplemented with 10% FBS. Wound-healing assay. The wound-healing assay involves observing whether confluent cells can migrate across a scrape or wound in the cell layer. Cell migration assays were performed as described previously (Yang et al. 2005, Shan et al 2006). Tumor cells were plated in a 24-well plate coated with gelatin in standard media. […] Photographs several random regions of the filter facing the second chamber are taken and the number of cells counted to calculate the average number of cells that had transmigrated.
Boyden Chamber Cell Migration Assay. […] Three randomly selected fields (10× objectives) on the lower side of the insert were photographed, and the migrated cells were counted. The migration was expressed as either the average number of migrated cells in a field or as percentage of migrated cells in positive control. Percentage was calculated with the formula P=100×(M−Mnc)/Mpc, where P is the percentage of migrated cells, M is the number of migrated cells, Mnc is the number of migrated cells in negative controls, and Mpc is the number of migrated cells in positive controls.

4T1 cells [5] = conditions: serum, Shan et al. 2005; cited from earlier work
Drosophila fascin = biological target: T2, Drosophila fascin (Drosophila melanogaster, UniProt Q24524); test: Migration of fascin siRNA-treated 4T1 cells rescued with Drosophila fascin; format: cell-based; conditions: Drosophila fascin in fascin siRNA-treated 4T1 cells
T2 construct: expressed in transfected cells; host or cells: 4T1 mouse mammary tumor cells treated with fascin siRNAs
T2 sequence (Q24524 1-512): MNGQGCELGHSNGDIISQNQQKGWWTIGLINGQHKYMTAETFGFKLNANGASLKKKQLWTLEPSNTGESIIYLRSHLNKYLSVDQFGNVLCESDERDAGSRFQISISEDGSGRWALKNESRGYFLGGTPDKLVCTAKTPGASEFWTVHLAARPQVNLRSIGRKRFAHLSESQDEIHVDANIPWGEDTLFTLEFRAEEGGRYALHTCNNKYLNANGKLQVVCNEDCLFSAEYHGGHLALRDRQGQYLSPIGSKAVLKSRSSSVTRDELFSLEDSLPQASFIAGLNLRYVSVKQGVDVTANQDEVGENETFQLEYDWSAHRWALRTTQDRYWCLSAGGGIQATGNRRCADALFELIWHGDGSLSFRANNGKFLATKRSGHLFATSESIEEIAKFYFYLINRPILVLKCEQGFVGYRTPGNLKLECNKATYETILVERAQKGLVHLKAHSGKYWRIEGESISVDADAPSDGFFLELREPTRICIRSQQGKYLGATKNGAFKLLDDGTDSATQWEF
Experimental: Boyden Chamber Cell Migration Assay. Cells (5×10^4) suspended in starvation medium were added to the upper chamber of an insert (6.5 mm diameter, 8-micrometer pore size, Becton Dickenson), and the insert was placed in a 24-well dish containing starvation medium with or without 10% FBS (Yang et al. 2005, Shan et al. 2006). When used, inhibitors were added to both chambers. Migration assays were carried out for 4-6 hours and cells were fixed with 3.7% formaldehyde. Cells were stained with crystal violet staining solution, and cells on the upper side of the insert were removed with a cotton swab. Three randomly selected fields (10× objectives) on the lower side of the insert were photographed, and the migrated cells were counted. The migration was expressed as either the average number of migrated cells in a field or as percentage of migrated cells in positive control. Percentage was calculated with the formula P=100×(M−Mnc)/Mpc, where P is the percentage of migrated cells, M is the number of migrated cells, Mnc is the number of migrated cells in negative controls, and Mpc is the number of migrated cells in positive controls.

fascin [6] = biological target: T1, fascin; test: Electron microscopy of fascin-induced F-actin bundles; format: biochemical; set-up: GST (N); made in house; host or cells: Escherichia coli BL21

For `COC1C=CCCCCC(=O)CCC(C)=CC(C)C1O` (centres unmarked) [macroketone, Migrastatin ketone], the “fascin-induced bundling of F-actin polymers” value (fascin [1]; with fascin) was “significantly decreased”, the “formation of F-actin bundles, compound alone” value (fascin [1]; without fascin) was “had no effect” and the inhibition of migration [2] was “inhibited the migration”. For the same compound, the “effect on serum-induced migration (wound-healing)” value [3] was “had no effect”, the IC50 (4T1 cells [4]) was 100 nM and the “formation of lamellipodia at the leading edge” value (4T1 cells [5]) was “inhibited the formation of lamellipodia”. The “sensitivity of rescued migration” value (Drosophila fascin) was “no sensitivity” and the “thickness of actin bundles” value (fascin [6]) was “decreased the thickness of the bundles”.
